Results as given in patent US20260217697A1, “COMPOUNDS COMPRISING HETEROARYL RINGS AND COMPOSITIONS AND METHODS THEREOF” (lonGen Therapeutics Co., Ltd., priority 2022, published 2026).

Biological target: T1, hTRPV3 (Homo sapiens, UniProt Q8NET8)
T1 construct: The commercially available plasmid with the full-length cDNA of hTRPV3 (791 aa) (NM_001258205.2); host or cells: HEK293T
T1 sequence (Q8NET8 1-791 isoform Q8NET8-2): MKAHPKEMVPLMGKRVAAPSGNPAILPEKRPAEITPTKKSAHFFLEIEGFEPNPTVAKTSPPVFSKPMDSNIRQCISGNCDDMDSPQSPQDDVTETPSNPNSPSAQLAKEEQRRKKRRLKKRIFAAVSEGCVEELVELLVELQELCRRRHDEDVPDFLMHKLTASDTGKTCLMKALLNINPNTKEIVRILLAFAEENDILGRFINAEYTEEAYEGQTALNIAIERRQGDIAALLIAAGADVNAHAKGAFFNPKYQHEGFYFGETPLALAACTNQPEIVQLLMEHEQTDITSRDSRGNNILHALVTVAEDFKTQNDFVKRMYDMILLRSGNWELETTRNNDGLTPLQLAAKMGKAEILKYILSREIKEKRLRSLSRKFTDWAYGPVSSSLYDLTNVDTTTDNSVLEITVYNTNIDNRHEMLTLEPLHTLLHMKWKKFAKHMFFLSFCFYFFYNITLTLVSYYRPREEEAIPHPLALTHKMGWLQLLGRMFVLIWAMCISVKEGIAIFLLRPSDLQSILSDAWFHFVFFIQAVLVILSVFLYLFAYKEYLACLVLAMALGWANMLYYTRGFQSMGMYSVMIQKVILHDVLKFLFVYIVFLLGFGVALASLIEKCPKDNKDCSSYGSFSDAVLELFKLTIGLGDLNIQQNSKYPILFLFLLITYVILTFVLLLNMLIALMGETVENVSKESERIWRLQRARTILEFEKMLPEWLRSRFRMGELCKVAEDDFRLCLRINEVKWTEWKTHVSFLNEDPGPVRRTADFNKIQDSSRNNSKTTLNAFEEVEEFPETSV
Assay: Whole-cell patch-clamp recording of hTRPV3 current in transfected HEK293T cells (2-APB induced)
Type: cell-based
Conditions: current induced by 300 μM 2-APB, compounds tested up to 10 μM, room temperature
Outline: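 HEK293T cells transiently expressing full-length hTRPV3, recorded by whole-cell patch clamp 18 h post-transfection at room temperature, with 130 mM NaCl/0.3 mM EDTA/3 mM HEPES pH 7.4 on both sides. Holding potential 0 mV; 400-ms steps to +80 and −80 mV every 2 s. Block of 2-APB-evoked current, tested up to 10 μM, fitted to Hill equation for IC50.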

Compound | IC50 [nM]
COc1ncnc(OC)c1C(=O)Nc1nc2c(s1)C1(CCCC(NC(=O)OCc3ccccc3)C1)Oc1cc(C(F)(F)F)ccc1-2 (stereo not drawn) [compound 39, benzyl(2-(4,6-dimethoxypyrimidine-5-carboxamido)-7-(trifluoromethyl)spiro[chromeno[4,3-d]thiazole-4,1′-cyclohexan]-3′-yl)carbamate] | 100 to 1000
CCC1(CC)Oc2nc(C(F)(F)F)ccc2-c2nc(NC(=O)c3c(OC)ncnc3OC)sc21 [compound 60, N-(4,4-diethyl-7-(trifluoromethyl)-4H-thiazolo[4′,5′: 4,5]pyrano[2,3-b]pyridin-2-yl)-4,6-dimethoxypyrimidine-5-carboxamide] | 100 to 1000
CCC1(CC)Oc2cc(C(F)(F)F)ccc2-c2nc(NC(=O)c3c(OCC(F)(F)F)ncnc3OCC(F)(F)F)sc21 [compound 48, N-(4,4-diethyl-7-(trifluoromethyl)-4H-chromeno[4,3-d]thiazol-2-yl)-4,6-bis(2,2,2-trifluoroethoxy)pyrimidine-5-carboxamide] | ≥ 10000
COc1ncnc(O)c1C(=O)Nc1nc2c(s1)C1(COC1)Oc1cc(C(C)C)ccc1-2 [compound 144, 4-hydroxy-N-(7-isopropylspiro[chromeno[4,3-d]thiazole-4,3′-oxetan]-2-yl)-6-methoxypyrimidine-5-carboxamide] | ≥ 10000
COc1ncnc(OC)c1C(=O)Nc1nc2c(s1)C1(CCC(C(=O)N(C)C)CC1)Oc1cc(C(F)(F)F)ccc1-2 (stereo not drawn) [compound 116, 2-(4,6-dimethoxypyrimidine-5-carboxamido)-N,N-dimethyl-7-(trifluoromethyl)spiro[chromeno[4,3-d]thiazole-4,1′-cyclohexane]-4′-carboxamide] | 1000 to 10000
COc1ncnc(OC)c1C(=O)Nc1nc2c(s1)C1(CN(C(C)=O)C1)Oc1cc(C(F)(F)F)ccc1-2 [compound 68, N-(1-acetyl-7′-(trifluoromethyl)spiro[azetidine-3,4′-chromeno[4,3-d]thiazol]-2′-yl)-4,6-dimethoxypyrimidine-5-carboxamide] | 1000 to 10000
COc1ncnc(OC)c1C(=O)Nc1nc2c(s1)COc1c-2cccc1C(F)(F)F [compound 15, 4,6-dimethoxy-N-(6-(trifluoromethyl)-4H-chromeno[4,3-d]thiazol-2-yl)pyrimidine-5-carboxamide] | ≥ 10000
COc1ncnc(OC)c1C(=O)Nc1nc2c(s1)C1(CCCN(C(=O)OC(C)(C)C)C1)Oc1cc(C(F)(F)F)ccc1-2 (stereo not drawn) [compound 12, tert-butyl 2-(4,6-dimethoxypyrimidine-5-carboxamido)-7-(trifluoromethyl)spiro[chromeno[4,3-d]thiazole-4,3′-piperidine]-1′-carboxylate] | 100 to 1000
CCC1(CC)Oc2ccc(C(F)(F)F)cc2-c2nc(NC(=O)c3c(OC)ncnc3OC)sc21 [compound 83, N-(4,4-diethyl-8-(trifluoromethyl)-4H-chromeno[4,3-d]thiazol-2-yl)-4,6-dimethoxypyrimidine-5-carboxamide] | ≥ 10000
COc1ncnc(OC)c1C(=O)Nc1nc2c(s1)C1(CCCCC1)Oc1cc(C(F)(F)F)ccc1-2 [compound 13, 4,6-dimethoxy-N-(7-(trifluoromethyl)spiro[chromeno[4,3-d]thiazole-4,1′-cyclohexan]-2-yl)pyrimidine-5-carboxamide] | < 100
CCC1CCC2(CC1)Oc1cc(C(F)(F)F)ccc1-c1nc(NC(=O)c3c(OC)ncnc3OC)sc12 (stereo not drawn) [compound 31, N-(4′-ethyl-7-(trifluoromethyl)spiro[chromeno[4,3-d]thiazole-4,1′-cyclohexan]-2-yl)-4,6-dimethoxypyrimidine-5-carboxamide] | 100 to 1000
COc1ncnc(OC)c1C(=O)Nc1nc2c(s1)C1(COC(C)(C)OC1)Oc1cc(C(F)(F)F)ccc1-2 [compound 108, N-(2′,2′-dimethyl-7-(trifluoromethyl)spiro[chromeno[4,3-d]thiazole-4,5′-[1,3]dioxan]-2-yl)-4,6-dimethoxypyrimidine-5-carboxamide] | 100 to 1000
